# In paper PMC10977697 (PLOS ONE, 2024):
# Where no end group is shown, it is not given here.
# System: HtrA1
# Format: binding, human
# Conditions: ratio of signal for target protein over BSA background
row,Sequence,S/N
1,AFDCLGQCGRCDFHKLQCVFWHWYYCNSSCTR (also: bicyclic or more (positions not given here)) [HtrA1 AVR9 84],8.5
2,AFDCLGQCGRCDFHKLQCVIQQMRWKAQPDGYCNSSCTR (also: bicyclic or more (positions not given here)) [HtrA1 AVR9 37],9.7
3,AFDCLGQCGRCDFHKLQCVKQVMATLWSMYCNSSCTR (also: bicyclic or more (positions not given here)) [HtrA1 AVR9 39],9.9
4,AFDCLGQCGRCDFHKLQCVLWHQWVKWYVYCNSSCTR (also: bicyclic or more (positions not given here)) [HtrA1 AVR9 68],8.9
5,AFDCLGQCGRCDFHKLQCVLWTVANMQHYYCNSSCTR (also: bicyclic or more (positions not given here)) [HtrA1 AVR9 85],6.5
6,AFDCLGQCGRCDFHKLQCVMMRLLARWVFKFYCNSSCTR (also: bicyclic or more (positions not given here)) [HtrA1 AVR9 52],13.2
7,AFDCLGQCGRCDFHKLQCVQYAYRWLMRQYCNSSCTR (also: bicyclic or more (positions not given here)) [HtrA1 AVR9 55],4.1
8,AFDCLGQCGRCDFHKLQCVRWSIDAIIIWYCNSSCTR (also: bicyclic or more (positions not given here)) [HtrA1 AVR9 42],12.1
9,AFDCLGQCGRCDFHKLQCVRYLIKYSIMWMTYCNSSCTR (also: bicyclic or more (positions not given here)) [HtrA1 AVR9 26],15.1
10,AFDCLGQCGRCDFHKLQCVVFQIIYQAVNYCNSSCTR (also: bicyclic or more (positions not given here)) [HtrA1 AVR9 88],9.5
11,AFDCLGQCGRCDFHKLQCVVTIIRKMMLWYCNSSCTR (also: bicyclic or more (positions not given here)) [HtrA1 AVR9 31],19.0
12,AFDCLGQCGRCDFHKLQCVWRWMHQYCNSSCTR (also: bicyclic or more (positions not given here)) [HtrA1 AVR9 2],22.7
13,AFDCLGQCGRCDFHKLQCVWRYIQKMRYCNSSCTR (also: bicyclic or more (positions not given here)) [HtrA1 AVR9 89],14.9
14,AFDCLGQCGRCDFHKLQCVWSIYVKFWYCNSSCTR (also: bicyclic or more (positions not given here)) [HtrA1 AVR9 4],21.2
15,AFDCLGQCGRCDFHKLQCVYRQFWMVKFGWQPGYCNSSCTR (also: bicyclic or more (positions not given here)) [HtrA1 AVR9 10],15.2
16,GCHSVHSMCKQDSDCLAGCVCYWFYGCG (also: bicyclic or more (positions not given here)) [HtrA1 EET I-II 1],11.8
17,GCPRILMRCKQDSDCLAGCVCWMPVLCV (also: bicyclic or more (positions not given here)) [HtrA1 EET I-II 19],3.1
18,GCREMLGNWVCKRFRLSSWLCLWSNGFCGT [HtrA1 EET I-II 41],11.8

row,Sequence,S/N
1,GCWWMNVRTRQGCKQDSDCLAGCVCGPNGFCG (also: bicyclic or more (positions not given here)) [HtrA1 EET I-II 25],2.8
2,GPTQSHYGQCGGRGYFGTMYCASGTTCQFKWRRDSQCLPGAS (also: bicyclic or more (positions not given here)) [HtrA1 CBD 74],22.8
3,GPTQSHYGQCGGSGYWGLFMCASGTTCQSVTMTVSQCLPGAS (also: bicyclic or more (positions not given here)) [HtrA1 CBD 54],5.6
4,GPTQSHYGQCGGWGYTGWYQCASGTTCQGPRSRLSQCLPGAS (also: bicyclic or more (positions not given here)) [HtrA1_CBDwt46],25.9
5,WIPCISAALGCSCKNKVCYALNNMVQFLYIHHCGESCV (also: bicyclic or more (positions not given here)) [HtrA1 CirculinA 66],12.7
6,WIPCISAALGCSCKNKVCYFFHKLMYYMCGESCV (also: bicyclic or more (positions not given here)) [HtrA1 CirculinA 24],17.7
7,WIPCISAALGCSCKNKVCYFMTQHIRWFVKCGESCV (also: bicyclic or more (positions not given here)) [HtrA1 CirculinA 91],26.8
8,WIPCISAALGCSCKNKVCYHFQHWVQMNKCGESCV (also: bicyclic or more (positions not given here)) [HtrA1 CirculinA 82],10.4
9,WIPCISAALGCSCKNKVCYILNRSCGESCV (also: bicyclic or more (positions not given here)) [HtrA1 CirculinA 40],8.0
10,WIPCISAALGCSCKNKVCYIVILTTPCGESCV (also: bicyclic or more (positions not given here)) [HtrA1 CirculinA 73],8.4
11,WIPCISAALGCSCKNKVCYMYYYIMGQNLMNTCGESCV (also: bicyclic or more (positions not given here)) [HtrA1 CirculinA 48],24.1
12,WIPCISAALGCSCKNKVCYQVWQHIFKCGESCV (also: bicyclic or more (positions not given here)) [HtrA1 CirculinA 67],15.4
13,WIPCISAALGCSCKNKVCYVATMVVHWVCGESCV (also: bicyclic or more (positions not given here)) [HtrA1 CirculinA 34],16.8
14,WIPCISAALGCSCKNKVCYYAGKIYSWQAQLLCGESCV (also: bicyclic or more (positions not given here)) [HtrA1 CirculinA 93],8.4
15,WIPCISAALGCSCKNKVCYYMWHVHSLICGESCV (also: bicyclic or more (positions not given here)) [HtrA1 CirculinA 36],9.6
16,WIPCISAALGCSCKNKVCYYTILPISYYWHLVCGESCV (also: bicyclic or more (positions not given here)) [HtrA1 CirculinA 45],8.2
17,WIPCISAALGCSCKNKVCYYVMKYCGESCV (also: bicyclic or more (positions not given here)) [HtrA1 CirculinA 17],13.7

# System: Fz7CRD-Fc
# Format: binding
# Conditions: ratio of signal for target protein over BSA background
row,Sequence,S/N
1,AFDCLGQCGRCDFHKLQCVLVEPSGWYQVISWKYCNSSCTR (also: bicyclic or more (positions not given here)) [Fz7CRD-Fc AVR9 2],5.0
2,GCGWLPELKLWCKQDSDCLAGCVCEDMIDCG (also: bicyclic or more (positions not given here)) [Fz7CRD-Fc EET I-II 38],15.1
3,GCGWLPELKLWCKQDSDCLAGCVCEDMIDCG (also: bicyclic or more (positions not given here)) [Fz7CRD-Fc EET I-II 42],36.2
4,GCGWWFKQWFCKQDSDCLAGCVCGPNGFCG (also: bicyclic or more (positions not given here)) [Fz7CRD-Fc EET I-II 19],3.8

# Same assay, conditions: spot phage ELISA signal; DCP displayed on M13 p8
row,Sequence,ELISA
1,AFDCLGQCGRCDFHKLQCVLVEPSGWYQVISWKYCNSSCTR (also: bicyclic or more (positions not given here)) [Fz7CRD-Fc AVR9 2],0.29
2,GCGWLPELKLWCKQDSDCLAGCVCEDMIDCG (also: bicyclic or more (positions not given here)) [Fz7CRD-Fc EET I-II 38],1.32
3,GCGWLPELKLWCKQDSDCLAGCVCEDMIDCG (also: bicyclic or more (positions not given here)) [Fz7CRD-Fc EET I-II 42],2.79
4,GCGWWFKQWFCKQDSDCLAGCVCGPNGFCG (also: bicyclic or more (positions not given here)) [Fz7CRD-Fc EET I-II 19],1.83
